Measured values published in patent US20120165310A1, “ETHER DERIVATIVES OF BICYCLIC HETEROARYLS” (NOVARTIS AG, priority 2009, published 2012).

The compounds below were run against T1, IGF-1R (Homo sapiens, UniProt P08069) (assay: Cellular IGF-1R assay: capture ELISA (MSD) of receptor phosphorylation in Hek293 cells). Details: Hek293-IGF1R cells, 1 h pre-incubation, 10 min IGF stimulation, pIGF1R capture ELISA.
T1 construct: expressed in transfected cells; host or cells: Hek293 (Hek293-IGF1R)
Format: cell-based
Method: (§1) In this assay the activity of the compounds of the invention against Insulin-like growth factor I (IGF-I) induced autophosphorylation of the IGF-IR was determined. The assay was conducted as follows: Compound-mediated inhibition of IGF1R and INSR phosphorylation in Hek293 cells transduced with the corresponding receptors was assessed in a capture ELISA format using the MSD (Meso Scale Discovery) platform. Briefly, 30,000 cells washed and diluted in starvation medium (DMEM high glucose supplemented with 0.1% BSA) were seeded in 90 μL per well into 96-well plates pre-coated with poly-D-lysine (0.1 mg/mL in PBS/O). After 24 h incubation at 37° C. and 5% CO2, dose-response effects were determined with 3-fold serial compound dilutions, starting at 10 μM. The final vehicle concentration is 0.1% DMSO in all wells. Following pre-incubation with compounds for 1 h, receptor phosphorylation was triggered by a 10 min exposure to 1.0 ng/μL IGF for Hek293-IGF1R cells, and 5.0 ng/μL insulin for Hek293-InsR cells. Cell lysis was achieved by addition of 80 μL MSD lysis buffer per aspirated well, incubation on ice for 20 min, and a freeze-thaw cycle. Target phosphorylation was then assessed by transferring volumes corresponding to approx. 6 μg Hek293-IGF1R or 0.6 μg Hek293-InsR lysates to MSD assay plates pre-coated with total-IGF1R or total-InsR Abs, respectively. […] Immune complexes were detected by a SULFO-Tag™-coupled anti-rabbit IgG antibody in the presence of 150 μL MSD read-buffer. Light emission at 620 nm triggered by application of electric current was recorded on a MSD Sectorlmager 6000. Acquired raw data (mean Ru-ECL units) were processed in an Excel analysis template. The plate blank (MSD lysis buffer) was subtracted from all data points. The effect of a particular test compound concentration on receptor phosphorylation was expressed relative to the window defined by ligand-stimulated vs unstimulated control cells (set as 100%). IC50 values [nM] were determined using 4-parametric curve-fitting (XLfit software, V4.3.2).
as §1, with “Compound-mediated” for “In this assay the activity of the compounds of the invention against Insulin-like growth factor I (IGF-I) induced autophosphorylation of the IGF-IR was determined. The assay was conducted as follows: Compound-mediated”, “cells trans-duced” for “cells transduced”, “receptors were” for “receptors was”, “concentration was” for “concentration is”, “for Hek293-IGF1 R” for “for Hek293-IGF1R”, “with total-IGF1 R” for “with total-IGF1R”

T1 sequence (P08069 31-1367): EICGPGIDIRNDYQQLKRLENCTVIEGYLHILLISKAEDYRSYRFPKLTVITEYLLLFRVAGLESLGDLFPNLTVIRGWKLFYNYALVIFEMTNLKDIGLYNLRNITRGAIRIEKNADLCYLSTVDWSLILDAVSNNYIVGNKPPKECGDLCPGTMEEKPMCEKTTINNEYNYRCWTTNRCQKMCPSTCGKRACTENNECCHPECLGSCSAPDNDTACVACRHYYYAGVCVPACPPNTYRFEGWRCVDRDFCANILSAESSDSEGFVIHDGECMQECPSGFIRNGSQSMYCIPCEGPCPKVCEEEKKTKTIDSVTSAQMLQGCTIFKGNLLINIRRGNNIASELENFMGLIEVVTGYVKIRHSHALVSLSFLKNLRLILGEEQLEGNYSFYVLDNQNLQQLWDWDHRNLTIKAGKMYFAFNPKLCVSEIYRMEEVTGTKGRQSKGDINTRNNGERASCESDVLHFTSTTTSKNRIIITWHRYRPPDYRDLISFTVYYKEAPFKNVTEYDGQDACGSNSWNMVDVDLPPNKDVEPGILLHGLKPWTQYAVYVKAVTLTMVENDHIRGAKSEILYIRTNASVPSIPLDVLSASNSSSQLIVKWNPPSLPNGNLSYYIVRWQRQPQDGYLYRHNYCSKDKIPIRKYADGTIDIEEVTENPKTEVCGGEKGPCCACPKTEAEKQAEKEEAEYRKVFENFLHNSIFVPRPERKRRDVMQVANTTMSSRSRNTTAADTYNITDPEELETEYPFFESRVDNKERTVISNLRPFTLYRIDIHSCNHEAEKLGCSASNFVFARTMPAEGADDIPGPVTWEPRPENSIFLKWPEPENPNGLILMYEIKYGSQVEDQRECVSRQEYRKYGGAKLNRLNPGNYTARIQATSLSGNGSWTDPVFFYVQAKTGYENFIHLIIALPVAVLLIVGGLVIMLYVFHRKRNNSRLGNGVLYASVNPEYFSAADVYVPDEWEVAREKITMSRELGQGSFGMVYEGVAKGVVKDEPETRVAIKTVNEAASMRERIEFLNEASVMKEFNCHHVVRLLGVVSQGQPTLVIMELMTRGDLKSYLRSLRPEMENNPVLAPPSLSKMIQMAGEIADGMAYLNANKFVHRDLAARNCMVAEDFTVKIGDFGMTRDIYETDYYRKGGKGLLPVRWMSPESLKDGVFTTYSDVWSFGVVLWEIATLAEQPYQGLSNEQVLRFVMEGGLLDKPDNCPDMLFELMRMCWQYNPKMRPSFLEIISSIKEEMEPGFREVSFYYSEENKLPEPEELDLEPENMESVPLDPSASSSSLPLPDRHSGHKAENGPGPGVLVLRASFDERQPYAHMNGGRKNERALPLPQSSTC

Compound	IC50
Nc1ncnc2c1c(-c1cccc(OCC34CCC(CC3)O4)c1)cn2C1CCC(c2cnco2)CC1 [Example 150, 5-(3-(7-oxabicyclo[2.2.1]heptan-1-ylmethoxy)phenyl)-7-((1S,4S)-4-(oxazol-5-yl)cyclohexyl)-7H-pyrrolo[2,3-d]pyrimidin-4-amine]	0.335 µM
Nc1ncnc2c1c(-c1cccc(OCC3CCCCO3)c1)cn2[C@H]1C[C@@H](CN2CCCC2C(=O)O)C1 (relative stereo) [Example 92, 1-(cis-3-{4-amino-5-[3-(tetrahydro-pyran-2-ylmethoxy)-phenyl]-pyrrolo[2,3-d]pyrimidin-7-yl}-cyclobutylmethyl)-pyrrolidine-2-carboxylic acid]	0.559 µM
Nc1ncnc2c1c(-c1cccc(OCC3CCCCO3)c1)cn2C1CC(CN2CC[C@@H](F)C2)C1 (stereo partly drawn) [Example 27, 7-[3-((R)-3-fluoro-pyrrolidin-1-ylmethyl)-cyclobutyl]-5-[3-(tetrahydro-pyran-2-ylmethoxy)-phenyl]-7H-pyrrolo[2,3-d]pyrimidin-4-ylamine]	0.345 µM
Nc1ncnc2c1c(-c1cccc(OCC34CCC(CC3)O4)c1)cn2[C@H]1CC[C@@H](NC(=O)C2CC2)CC1 [Example 146, N-((1S,4S)-4-(5-(3-(7-oxabicyclo[2.2.1]heptan-1-ylmethoxy)phenyl)-4-amino-7H-pyrrolo[2,3-d]pyrimidin-7-yl)cyclohexyl)cyclopropanecarboxamide]	0.174 µM
Nc1ncnc2c1c(-c1cccc(OCC34CCC(CC3)O4)c1)cn2[C@H]1C[C@](O)(CN2CC(O)C2)C1 [Example 199, (Z)-1-(3-{4-Amino-5-[3-(7-oxa-bicyclo[2.2.1]hept-1-ylmethoxy)-phenyl]-pyrrolo[2,3-d]pyrimidin-7-yl}-1-hydroxy-cyclobutylmethyl)-azetidin-3-ol]	0.201 µM
Nc1ncnc2c1c(-c1cccc(OCC34CCC(CC3)O4)c1)cn2C1CCC(O)(CN2CCS(=O)(=O)CC2)CC1 (centres unmarked) [Example 149, 4-{4-Amino-5-[3-(7-oxa-bicyclo[2.2.1]hept-1-ylmethoxy)-phenyl]-pyrrolo[2,3-d]pyrimidin-7-yl}-1-(1,1-dioxo-1λ6-thiomorpholin-4-ylmethyl)-cyclohexanol]	0.464 µM
Nc1ncnc2c1c(-c1cccc(OCC34CCC(CC3)O4)c1)cn2[C@H]1CC[C@@H](NC(=O)CC(F)(F)F)CC1 [Example 144, N-((1S,4S)-4-(5-(3-(7-oxabicyclo[2.2.1]heptan-1-ylmethoxy)phenyl)-4-amino-7H-pyrrolo[2,3-d]pyrimidin-7-yl)cyclohexyl)-3,3,3-trifluoropropanamide]	0.593 µM
Nc1ncnc2c1c(-c1cccc(OCC34CCC(CC3)O4)c1)cn2C1CC(O)(CN2CCCC2CO)C1 (single isomer, unassigned) [Example 200]	0.263 µM
Nc1ncnc2c1c(-c1cccc(OCC3CCCO3)c1)cn2[C@H]1C[C@@H](CN2CCS(=O)(=O)CC2)C1 (relative stereo) [Example 88, 7-[cis-3-(1,1-Dioxothiomorpholin-4-ylmethyl)-cyclobutyl]-5-[3-(tetrahydro-furan-2-ylmethoxy)-phenyl]-7H-pyrrolo[2,3-d]pyrimidin-4-ylamine]	0.234 µM

These reach a lower IC50. Values come first.

IC50	Compound
0.138 µM	Nc1ncnc2c1c(-c1cccc(OCC34CCC(CC3)O4)c1)cn2[C@H]1C[C@@H](N2CC(O)C2)C1 (relative stereo) [Example 191, 1-(cis-3-{4-Amino-5-[3-(7-oxa-bicyclo[2.2.1]hept-1-ylmethoxy)-phenyl]-pyrrolo[2,3-d]pyrimidin-7-yl}-cyclobutyl)-azetidin-3-ol]
0.026 µM	CC1(C(N)=O)CCCN1CC1CC(n2cc(-c3cccc(OCC4CCCCO4)c3)c3c(N)ncnc32)C1 [Example 93, (2S)-1-(((1s,3R)-3-(4-amino-5-(3-((tetrahydro-2H-pyran-2-yl)methoxy)phenyl)-7H-pyrrolo[2,3-d]pyrimidin-7-yl)cyclobutyl)methyl)-2-methylpyrrolidine-2-carboxamide]
0.025 µM	Nc1ncnc2c1c(-c1cccc(OCC34CCC(CC3)O4)c1)cn2[C@H]1CC[C@@H](CN2CC[C@@H](O)C2)CC1 [Example 124]
0.036 µM	Nc1ncnc2c1c(-c1cccc(OCC34CCC(CC3)O4)c1)cn2[C@H]1CC[C@@H](CN2CCSCC2)CC1 [Example 112, 5-(3-(7-oxabicyclo[2.2.1]heptan-1-ylmethoxy)phenyl)-7-((1S,4S)-4-(thiomorpholinomethyl)cyclohexyl)-7H-pyrrolo[2,3-d]pyrimidin-4-amine]
0.041 to 0.103 µM	NC(=O)[C@@H]1[C@@H](O)CCN1C[C@H]1C[C@@H](n2cc(-c3cccc(OCC4CCCCO4)c3)c3c(N)ncnc32)C1 (stereo partly drawn) [Example 35, (2S,3S)-1-(cis-3-{4-amino-5-[3-(tetrahydro-pyran-2-ylmethoxy)-phenyl]-pyrrolo[2,3-d]pyrimidin-7-yl}-cyclobutylmethyl)-3-hydroxy-pyrrolidine-2-carboxylic acid amide]
0.069 µM	CN1CCN(C[C@]2(O)C[C@@H](n3cc(-c4cccc(OCC56CCC(CC5)O6)c4)c4c(N)ncnc43)C2)CC1 [Example 123, (Z)-3-{4-Amino-5-[3-(7-oxa-bicyclo[2.2.1]hept-1-ylmethoxy)-phenyl]-pyrrolo[2,3-d]pyrimidin-7-yl}-1-(4-methyl-piperazin-1-ylmethyl)-cyclobutanol]
0.132 µM	NC(=O)[C@@H]1CCCN1[C@H]1C[C@@H](n2cc(-c3cccc(OCC45CCC(CC4)O5)c3)c3c(N)ncnc32)C1 [Example 189, (S)-1-(cis-3-{4-Amino-5-[3-(7-oxa-bicyclo[2.2.1]hept-1-ylmethoxy)-phenyl]-pyrrolo[2,3-d]pyrimidin-7-yl}-cyclobutyl)-pyrrolidine-2-carboxylic acid amide]
0.119 to 0.139 µM	Nc1ncnc2c1c(-c1cccc(OCC3CCCCO3)c1)cn2[C@H]1C[C@@H](CN2CCC2)C1 (mixture of isomers) [Example 1, (rac)-cis-7-(3-azetidin-1-ylmethyl-cyclobutyl)-5-[3-(tetrahydro-pyran-2-ylmethoxy)-phenyl]-7H-pyrrolo[2,3-d]pyrimidin-4-ylamine]
0.061 µM	CN1CCN([C@H]2CC[C@@H](n3cc(-c4cccc(OCC5CCC(C)(C)O5)c4)c4c(N)ncnc43)CC2)CC1 (relative stereo) [Example 63, 5-[3-(5,5-dimethyl-tetrahydro-furan-2-ylmethoxy)-phenyl]-7-[cis-4-(4-methyl-piperazin-1-yl)-cyclohexyl]-7H-pyrrolo[2,3-d]pyrimidin-4-ylamine]
0.008 µM	CC1(C)CCC(COc2cccc(-c3cn([C@H]4C[C@@H](CN5CCC[C@H]5C(N)=O)C4)c4ncnc(N)c34)c2)O1 (stereo partly drawn) [Example 50, (S)-1-(cis-3-{4-amino-5-[3-(5,5-dimethyl-tetrahydro-furan-2-ylmethoxy)-phenyl]-pyrrolo[2,3-d]pyrimidin-7-yl}-cyclobutylmethyl)-pyrrolidine-2-carboxylic acid amide]
0.039 µM	NC(=O)[C@@H]1CCCN1C[C@H]1C[C@@H](n2cc(-c3cccc(OCC4CCCO4)c3)c3c(N)ncnc32)C1 (stereo partly drawn) [Example 76, (S)-1-(cis-3-{4-amino-5-[3-(tetrahydro-furan-2-ylmethoxy)-phenyl]-pyrrolo[2,3-d]pyrimidin-7-yl}-cyclobutylmethyl)-pyrrolidine-2-carboxylic acid amide]
